Here are results for one molecule from patent US20010012631A1, “Plant clonal lines and plants having elevated secondary metabolite levels” (University of Massachusetts Medical Center, a Massachusetts …, priority 1997, published 2001).

Where “and” joins values, the source holds several entries; their conditions need not be identical. Identical values can stand only once. Like-named read-outs stand apart in the source and are kept apart here.

For assay [1], the system named is oregano clonal line 0-4. Type of assay: cell-based. The following applies: ± SD; for RA Levels: 30 days (Example 3). On the procedure:
(§1) A mucoid, non-pathogenic Pseudomonas sp. strain was isolated as a contaminant of an oregano shoot culture. This Pseudomonas sp. was termed strain F. This strain was used in selecting Pseudomonas tolerant clonal lines. Strain F was grown on yeast extract-mannitol medium (Difco, Inc., Detroit, Mich.) until the inoculum density was about 10^9 colony forming units/mL. The bacterial suspension was diluted 100-fold in sterile distilled water and about 2.5 ml was dispensed into petri plates. Individual shoots of each clonal line at about 30 days of subculture were removed by cutting at the basal end and then inoculated by dipping the cut end into the diluted bacterial suspension. Inoculated shoots were then transferred to half-strength hormone-free MS medium, which induces root formation, and incubated in a growth room at 23° C., on a 16/8 hours day/night schedule. About 40 shoots of each clone were inoculated. Control shoots of each clonal line were transferred to the same medium, but were not exposed to bacteria.
(§2) Samples of Pseudomonas-treated and untreated control shoots from each line were assayed for rosmarinic acid content and proline content. Rosmarinic acid was extracted from 50 mg of fresh shoot tissue using 2 ml of 50% (v/v) methanol and incubating for 1 hour at 55° C. One ml of the methanol extract was diluted 1:18 and the absorbance of the diluted extract was measured at 333 nm in a Genesys spectrophotometer (Spectronic Instruments, Rochester, N.Y.). The concentration of RA in the extract was calculated using an extinction coefficient of ε333=19,000 τmol^−1cm^−1. Values for the concentration of RA for each treatment/clonal line shown in the Tables and Figures of this application are the average of at least 5 separate extracts. Total rosmarinic acid content was expressed as % g/g fresh weight (FW) of tissue.
(§3) Individual shoot tissue propagules of each clonal line were transferred to half strength hormone-free MS medium supplemented with 100 μM A2C. RA content, proline content, and morphological abnormalities were determined as described in Example 1.
(§4) Shoot tissue from oregano lines 0-4 and 0-5 was also cultured in the presence of A2C for 30 days. Samples of treated and control shoots were then assayed for RA content on a fresh weight basis and for morphological abnormalities.
(§5) Individual shoot tissue propagules of each clonal line were transferred to half strength hormone-free MS medium supplement with A2C. RA content and morphological abnormalities were determined as described in Example 1.

The test system of assay [2] is oregano clonal line 0-5. Type of assay: cell-based. To be noted: for RA Levels: 30 days (Example 3). The method, then:
as §1, §2, §3, §4, §5

The test system of the next assay is oregano clonal line OM-1. Type of assay: cell-based. The following applies: 30 days, ± SD. The method, then: as §2
(§6) Oregano lines 0-1, 0-4, and 0-5 of Examples 1 and 2 were tested again for cross-tolerance to A2C. Clonal lines OM-1, and OM-8 of Example 1 were also tested for cross-tolerance to A2C. Line OM-8 was previously shown to be sensitive to Pseudomonas strain F, whereas line OM-1 was tolerant of Pseudomonas strain F. Lines were maintained on MS medium containing BAP as described in Example 1.
as §5

Assay [3] concerns oregano clonal line OM-8. Format: cell-based. The following applies: 30 days. The method, then:
as §2, §6, §5

Another assay has as its system thyme clonal line T-12. In words: RA content of shoot propagules, thyme clonal line T-12. Type of assay: cell-based. To be noted: 30 to 45 days, ± SD. The method, then:
as §2
(§7) Three clonal thyme lines and five rosemary clonal lines were isolated and maintained in culture as described in U.S. application Ser. No. 08/771,241, filed Dec. 20, 1996 and incorporated herein by reference.
(§8) Individual shoot propagules of each clonal line were transferred to half-strength hormone-free MS media supplemented with A2C and cultured for 30 to 45 days. RA content and morphological abnormalities were determined at the end of the culture period as described in Example 1.

For assay [4], the system named is rosemary clonal line R-16. In words: RA content of shoot propagules, rosemary clonal line R-16. To be noted: 30 to 45 days. Format: cell-based. The method, then:
as §2, §7, §8

Assay [5] has as its system Glucose-6-phosphate dehydrogenase (G-6-PDH). Type of assay: cell-based, oregano. The following applies: A2C 50 μM. The method, then: These enzymes are involved in synthesis of phenolic secondary metabolites (PAL) and in the pentose phosphate pathway (G-6-PDH).
One gm fresh weight of leaves were ground to a powder in liquid nitrogen, and homogenized in 0.1 M Tris-HCl buffer (pH 7.4) containing 1 mM phenylmethyl-sulfonyl fluoride (PMSF), 0.1% polyvinylpyrrolidone (PVP, to remove phenolics and polysaccharides) and 1 mM dithiothreitol (DTT). Extracts were centrifuged at 15,000×g for 20 minutes, and supernatants (5 ml) were partially purified through a PD 10 column (Pharmacia, Inc., NJ). Protein was eluted from the column using 5 ml of 0.1 M Tris-HCl, pH 8.5, which is close to the pH optimum of plant glucose-6-phosphate dehydrogenase (pH 8.0-8.2) and PAL (pH 8.8).
Glucose-6-phosphate dehydrogenase activity in the protein extract was measured spectrophotometrically by following the change in absorbance at 340 nm in the presence of saturating amounts of glucose-6-phosphate (2mM) and NADP (5 μM) in 0.1 M Tris-HCl, pH 8.0. One unit of glucose-6-phosphate dehydrogenase was defined as the amount of enzyme causing the reduction of 1 μmol of NADP^+ per minute. Specific activity was expressed as units per milligram of protein.

Assay [6] has as its system oregano clonal line 0-4. The assay can be described thus: Morphological abnormalities / tolerance of cultured shoots, oregano line 0-4. Type of assay: cell-based. To be noted: line 0-4 cultured in the presence of 100 μM azetidine-2-carboxylic acid. On the procedure:
(§9) Pseudomonas tolerance of Pseudomonas-treated shoots was determined by visual observation with a stereomicroscope (Olympus-SZ40, Tokyo, Japan) at a magnification of 34X. Cultured shoots were evaluated for morphological abnormalities, including malformation, necrosis, and chlorophyll deficiency. The response of individual tissue propagules to Pseudomonas contact was similar within each line, i.e., there was little or no variation among tissue propagules within each line.
as §4

Assay [7] relates to oregano clonal line 0-5. In words: Morphological abnormalities / tolerance of cultured shoots, oregano line 0-5. The following applies: line 0-5, 200 μM A2C. Type of assay: cell-based. The method, then:
as §9, §4, §5

The test system of assay [8] is oregano clonal line OM-8. The assay can be described thus: Morphological abnormalities / tolerance of cultured shoots, oregano line OM-8. Type of assay: cell-based. To be noted: line OM-8, 200 μM A2C. The method, then: as §9, §5

Take `O=C(O)C1CCN1` (stereo not shown) [A2C, azetidine-2-carboxylic acid]: the RA in the assay on oregano clonal line 0-4 [1] (line 0-4, 100 μM A2C, day 30 (Example 2)) is 4.3 mg/g FW and 4.3 ± 0.7 mg/g FW; in the assay on oregano clonal line 0-5 [2] (line 0-5, 100 μM A2C, 30 days, remaining tissue portions (primarily shoot tips) (Example 2), ± SD) it was 3.2 mg/g FW and 3.2 ± 0.4 mg/g FW. Besides, the “RA Levels” value is recorded as 6.4 ± 0.8 mg/g FW in the assay with oregano clonal line 0-4 [1] (line 0-4, A2C 100 μM); 6.8 ± 0.7 mg/g FW in the assay on oregano clonal line 0-4 [1] (line 0-4, A2C 200 μM); 3.1 ± 0.5 mg/g FW with oregano clonal line 0-5 [2] (line 0-5, A2C 100 μM, ± SD); “inhibited” in the assay on oregano clonal line 0-5 [2] (line 0-5, A2C 200 μM); 7.1 ± 0.7 mg/g FW with oregano clonal line OM-1 (line OM-1, A2C 100 μM); 6.4 ± 1.2 mg/g FW with oregano clonal line OM-1 (line OM-1, A2C 200 μM). The “RA Levels” value with oregano clonal line OM-8 [3] (line OM-8, A2C 100 μM, ± SD) is 2.9 ± 0.3 mg/g FW; in the assay on oregano clonal line OM-8 [3] (line OM-8, A2C 200 μM), “inhibited”; with thyme clonal line T-12 (thyme T-12, A2C 100 μM) it was 4.1 ± 0.5 mg/g FW; in the assay on thyme clonal line T-12 (thyme T-12, A2C 200 μM) it was 5.1 ± 0.5 mg/g FW; in [4] (rosemary R-16, A2C 100 μM, ± SD), 10.4 ± 1.9 mg/g FW; in assay [4] (rosemary R-16, A2C 200 μM) it was “inhibited”. Also, the figures for the G-6-PDH specific activity in assay [5] (10 days of culture treatment) and in [5] (25 days of culture treatment) were 1.47 μmoles NADPH/min/mg protein and 1.23 μmoles NADPH/min/mg protein, respectively. Also, in the assay with oregano clonal line 0-4 [6], the morphological abnormalities result is on record as “no morphological abnormalities”. The “survival of line in culture” value in the assay on oregano clonal line 0-5 [7] and in the assay on oregano clonal line OM-8 [8] was “killed” in each case.
